Experimental data as given in US20240148821A1, “PHARMACEUTICAL USE OF CYCLIC PEPTIDE COMPOUND” (CHUGAI SEIYAKU KABUSHIKI KAISHA, priority 2021, published 2024).
Numbered stars: 1 amine (or outer) side, 2 acyl side, 3 side chain; on linkers, the order of the positions; unused ones are H or OH. Bridge positions count the residues as written; N and C are the ends. Square brackets hold non-standard residues; d marks the D form. Peptide text beside a SMILES is read from it. * marks the point of attachment. hPhe(3,5-F2-4-CF3) = N[C@@H](CCc1cc(F)c(C(F)(F)F)c(F)c1)C(=O)O; hPhe(3-Cl-4-CF3) = N[C@@H](CCc1ccc(C(F)(F)F)c(Cl)c1)C(=O)O; NMePhe(4-CF3) = CN[C@@H](Cc1ccc(C(F)(F)F)cc1)C(=O)O; dβ3h(hPhe) = O=C(C[C@@H](CCc1ccccc1)N[*:1])[*:2]; NMePhe(4-Me) = CN[C@@H](Cc1ccc(C)cc1)C(=O)O; NMedβ3hAla = C[C@H](CC(=O)[*:2])N(C)[*:1]; NMeNva(5,5-F2) = CN[C@@H](CCC(F)F)C(=O)O; NMeGly(cPent) = CN[C@H](C(=O)O)C1CCCC1; NMeCha = CN[C@@H](CC1CCCCC1)C(=O)O; X76 = C=CC[C@H](CC(=O)[*:2])N[*:1]; NMehLeu = CN[C@@H](CCC(C)C)C(=O)O; Hyp = O=C(O)[C@@H]1C[C@@H](O)CN1; NMeAhp(2) = CCCCC[C@H](NC)C(=O)O; NMeChg = CN[C@H](C(=O)O)C1CCCCC1; NMeF = CN[C@@H](Cc1ccccc1)C(=O)O; NMeI = CC[C@H](C)[C@H](NC)C(=O)O; d(β3hL) = CC(C)C[C@@H](N)CC(=O)O; NMeD = CN[C@@H](CC(=O)O)C(=O)O; dNMeD = CN[C@H](CC(=O)O)C(=O)O; NMeL = CN[C@@H](CC(C)C)C(=O)O; NMeNle = CCCC[C@H](NC)C(=O)O; NMeV = CN[C@H](C(=O)O)C(C)C; d(β3hA) = C[C@@H](N)CC(=O)O; NMeA = CN[C@@H](C)C(=O)O; Piperidide = C1CCN(*)CC1; Pyrrolidide = C1CCN(*)C1; Ac5c = NC1(C(=O)O)CCCC1; Aze = O=C(O)[C@@H]1CCN1; Sar = CNCC(=O)O

biological target: protein-protein interaction between Kras and SOS1 (biotin-tagged human Kras loaded with GDP, His-tagged human SOS1) (Homo sapiens (Human), UniProt P01116, G12D); assay: Protein-protein interaction inhibition between Kras and SOS1 (KrasG12D-SOS PPI) using AlphaScreen; format: biochemical; settings: AlphaScreen; biotin-tagged human Kras loaded with GDP, His-tagged human SOS1; read-out: KRAS G12D-SOS PPI IC50;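 note: kras produced in E. coli, Ni-coupled donor beads and streptavidin acceptor beads, excitation 680 nm with emission detected at 520–620 nm via singlet oxygen transfer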

Row | Structure (SMILES) | IC50 [nM]
1 | CC[C@H](C)[C@@H]1NC(=O)[C@H](CC(C)C)N(C)C(=O)C[C@@H](C(=O)N2CCCCC2)N(C)C(=O)[C@H](C2CCCCC2)N(C)C(=O)C2(CCCC2)NC(=O)[C@@H]2CCCN2C(=O)[C@H](CCc2ccc(C(F)(F)F)c(Cl)c2)NC(=O)CN(C)C(=O)[C@H](Cc2ccc(C)cc2)N(C)C(=O)[C@@H]2CCN2C(=O)[C@H](C)N(C)C1=O [Compound 1795] ([NMeL]I[NMeA][Aze][NMePhe(4-Me)][Sar][hPhe(3-Cl-4-CF3)]P[Ac5c][NMeChg][NMeD]-Piperidide; lactam N-11) | 0.99
2 | CC[C@H](C)[C@@H]1NC(=O)[C@H](CCC(F)F)N(C)C(=O)C[C@@H](C(=O)N2CCCCC2)N(C)C(=O)[C@H](C(C)C)N(C)C(=O)C2(CCCC2)NC(=O)[C@@H]2CCCN2C(=O)[C@H](CCc2ccc(C(F)(F)F)c(Cl)c2)NC(=O)CN(C)C(=O)[C@H](CC2CCCCC2)N(C)C(=O)[C@@H]2CCN2C(=O)[C@H](C)N(C)C1=O [Compound 1797] ([NMeNva(5,5-F2)]I[NMeA][Aze][NMeCha][Sar][hPhe(3-Cl-4-CF3)]P[Ac5c][NMeV][NMeD]-Piperidide; lactam N-11) | 3.7
3 | CC[C@H](C)[C@@H]1NC(=O)[C@H](CC(C)C)N(C)C(=O)C[C@@H](C)N(C)C(=O)[C@H](C(C)C)N(C)C(=O)C2(CCCC2)NC(=O)[C@@H]2CCCN2C(=O)[C@H](CCc2ccc(C(F)(F)F)c(Cl)c2)NC(=O)CN(C)C(=O)[C@H](CC2CCCCC2)N(C)C(=O)[C@@H]2CCN2C(=O)[C@H](C)N(C)C1=O [Compound 1800] (cyclo([Ac5c][NMeV][NMedβ3hAla][NMeL]I[NMeA][Aze][NMeCha][Sar][hPhe(3-Cl-4-CF3)]P)) | 11
4 | CC[C@H](C)[C@@H]1NC(=O)[C@H](CC(C)C)N(C)C(=O)C[C@@H](C)NC(=O)[C@H](C(C)C)N(C)C(=O)C2(CCCC2)NC(=O)[C@@H]2CCCN2C(=O)[C@H](CCc2ccc(C(F)(F)F)c(Cl)c2)NC(=O)CN(C)C(=O)[C@H](Cc2ccc(C)cc2)N(C)C(=O)[C@@H]2CCN2C(=O)[C@H](C)N(C)C1=O [Compound 1801] (cyclo([Ac5c][NMeV][d(β3hA)][NMeL]I[NMeA][Aze][NMePhe(4-Me)][Sar][hPhe(3-Cl-4-CF3)]P)) | 2.9
5 | CC[C@H](C)[C@@H]1NC(=O)[C@H](CC(C)C)N(C)C(=O)C[C@@H](C(=O)N2CCCCC2)N(C)C(=O)[C@H](C(C)C)N(C)C(=O)C2(CCCC2)NC(=O)[C@@H]2CCCN2C(=O)[C@H](CCc2ccc(C(F)(F)F)c(Cl)c2)NC(=O)CN(C)C(=O)[C@H](Cc2ccc(C)cc2)N(C)C(=O)[C@@H]2CCN2C(=O)[C@H](C)N(C)C1=O [Compound 1828] ([NMeL]I[NMeA][Aze][NMePhe(4-Me)][Sar][hPhe(3-Cl-4-CF3)]P[Ac5c][NMeV][NMeD]-Piperidide; lactam N-11) | 2.7
6 | CC[C@H](C)[C@@H]1NC(=O)[C@H](CCC(C)C)N(C)C(=O)C[C@@H](C(=O)N2CCCCC2)N(C)C(=O)[C@H](C(C)C)N(C)C(=O)C2(CCCC2)NC(=O)[C@@H]2CCCN2C(=O)[C@H](CCc2ccc(C(F)(F)F)c(Cl)c2)NC(=O)CN(C)C(=O)[C@H](CC2CCCCC2)N(C)C(=O)[C@@H]2CCN2C(=O)[C@H](C)N(C)C1=O [Compound 1833] ([NMehLeu]I[NMeA][Aze][NMeCha][Sar][hPhe(3-Cl-4-CF3)]P[Ac5c][NMeV][NMeD]-Piperidide; lactam N-11) | 7.5
7 | CC[C@H](C)[C@@H]1NC(=O)[C@H](C)N(C)C(=O)C[C@@H](C(=O)N2CCCCC2)N(C)C(=O)[C@H](C(C)C)N(C)C(=O)C2(CCCC2)NC(=O)[C@@H]2CCCN2C(=O)[C@H](CCc2ccc(C(F)(F)F)c(Cl)c2)NC(=O)[C@H]2CCCN2C(=O)[C@H](Cc2ccccc2)N(C)C(=O)[C@@H]2CCCN2C(=O)CN(C)C1=O [Compound 1839] ([NMeA]I[Sar]P[NMeF][dP][hPhe(3-Cl-4-CF3)]P[Ac5c][NMeV][NMeD]-Piperidide; lactam N-11) | 55
8 | CCO[C@@H]1C[C@H]2C(=O)NC3(CCCC3)C(=O)N(C)[C@@H](CC(C)C)C(=O)N(C)[C@H](C)CC(=O)N(C)[C@@H](CC(C)C)C(=O)N[C@@H]([C@@H](C)CC)C(=O)N(C)CC(=O)N(C)CC(=O)N(C)[C@@H](CC3CCCCC3)C(=O)N(C)CC(=O)N[C@@H](CCc3ccc(C(F)(F)F)c(Cl)c3)C(=O)N2C1 [Compound 1851] (cyclo([Ac5c][NMeL][NMedβ3hAla][NMeL]I[Sar][Sar][NMeCha][Sar][hPhe(3-Cl-4-CF3)][Hyp](Et))) | 2.5
9 | CC[C@H](C)[C@@H]1NC(=O)[C@H](CC(C)C)N(C)C(=O)C[C@@H](C(=O)N2CCCC2)N(C)C(=O)[C@H](C2CCCCC2)N(C)C(=O)C2(CCCC2)NC(=O)[C@@H]2CCCN2C(=O)[C@H](CCc2ccc(C(F)(F)F)c(Cl)c2)NC(=O)CN(C)C(=O)[C@H](Cc2ccc(C)cc2)N(C)C(=O)[C@@H]2CCN2C(=O)[C@H](C)N(C)C1=O [Compound 1852] ([NMeL]I[NMeA][Aze][NMePhe(4-Me)][Sar][hPhe(3-Cl-4-CF3)]P[Ac5c][NMeChg][NMeD]-Pyrrolidide; lactam N-11) | 0.94
10 | CCCCC[C@H]1C(=O)N(C)CC(=O)N[C@@H](CCc2ccc(C(F)(F)F)c(Cl)c2)C(=O)N2CCC[C@H]2C(=O)NC2(CCCC2)C(=O)N(C)[C@@H](C(C)C)C(=O)N(C)[C@H](C(=O)N2CCCCC2)CC(=O)N(C)[C@@H](CC(C)C)C(=O)N[C@@H]([C@@H](C)CC)C(=O)N(C)[C@@H](C)C(=O)N2CC[C@H]2C(=O)N1C [Compound 1854] ([NMeL]I[NMeA][Aze][NMeAhp(2)][Sar][hPhe(3-Cl-4-CF3)]P[Ac5c][NMeV][NMeD]-Piperidide; lactam N-11) | 5.5
11 | CCCC[C@H]1C(=O)N(C)[C@H](C(=O)N2CCCCC2)CC(=O)N(C)[C@@H](CC(C)C)C(=O)N[C@@H]([C@@H](C)CC)C(=O)N(C)[C@@H](C)C(=O)N2CC[C@H]2C(=O)N(C)[C@@H](CC2CCCCC2)C(=O)N(C)CC(=O)N[C@@H](CCc2ccc(C(F)(F)F)c(Cl)c2)C(=O)N2CCC[C@H]2C(=O)NC2(CCCC2)C(=O)N1C [Compound 1859] ([NMeL]I[NMeA][Aze][NMeCha][Sar][hPhe(3-Cl-4-CF3)]P[Ac5c][NMeNle][NMeD]-Piperidide; lactam N-11) | 15
12 | CC[C@H](C)[C@@H]1NC(=O)[C@H]([C@@H](C)CC)N(C)C(=O)C[C@@H](C(=O)N2CCCCC2)N(C)C(=O)[C@H](C(C)C)N(C)C(=O)C2(CCCC2)NC(=O)[C@@H]2CCCN2C(=O)[C@H](CCc2ccc(C(F)(F)F)c(Cl)c2)NC(=O)CN(C)C(=O)[C@H](CC2CCCCC2)N(C)C(=O)[C@@H]2CCN2C(=O)[C@H](C)N(C)C1=O [Compound 1863] ([NMeI]I[NMeA][Aze][NMeCha][Sar][hPhe(3-Cl-4-CF3)]P[Ac5c][NMeV][NMeD]-Piperidide; lactam N-11) | 10
13 | CC[C@H](C)[C@@H]1NC(=O)[C@H](CC(C)C)N(C)C(=O)C[C@@H](C(=O)N2CCCC2)N(C)C(=O)[C@H](C(C)C)N(C)C(=O)C2(CCCC2)NC(=O)[C@@H]2CCCN2C(=O)[C@H](CCc2ccc(C(F)(F)F)c(Cl)c2)NC(=O)CN(C)C(=O)[C@H](Cc2ccc(C)cc2)N(C)C(=O)[C@@H]2CCN2C(=O)[C@H](C)N(C)C1=O [Compound 1866] ([NMeL]I[NMeA][Aze][NMePhe(4-Me)][Sar][hPhe(3-Cl-4-CF3)]P[Ac5c][NMeV][NMeD]-Pyrrolidide; lactam N-11) | 2.8
14 | CC[C@H](C)[C@@H]1NC(=O)[C@H](CC(C)C)N(C)C(=O)C[C@H](C(=O)N2CCCC2)N(C)C(=O)[C@H](C2CCCC2)N(C)C(=O)C2(CCCC2)NC(=O)[C@@H]2CCCN2C(=O)[C@H](CCc2ccc(C(F)(F)F)c(Cl)c2)NC(=O)CN(C)C(=O)[C@H](CC2CCCCC2)N(C)C(=O)[C@@H]2CCN2C(=O)[C@H](C)N(C)C1=O [Compound 1868] ([NMeL]I[NMeA][Aze][NMeCha][Sar][hPhe(3-Cl-4-CF3)]P[Ac5c][NMeGly(cPent)][dNMeD]-Pyrrolidide; lactam N-11) | 100
15 | CC[C@H](C)[C@@H]1NC(=O)[C@H](CC(C)C)N(C)C(=O)C[C@@H](CCc2ccccc2)NC(=O)[C@H]([C@@H](C)CC)N(C)C(=O)C2(CCCC2)NC(=O)[C@@H]2CCCN2C(=O)[C@H](CCc2ccc(C(F)(F)F)c(Cl)c2)NC(=O)CN(C)C(=O)[C@H](Cc2ccc(C)cc2)N(C)C(=O)[C@@H]2CCN2C(=O)[C@H](C)N(C)C1=O [Compound 1874] (cyclo([Ac5c][NMeI][dβ3h(hPhe)][NMeL]I[NMeA][Aze][NMePhe(4-Me)][Sar][hPhe(3-Cl-4-CF3)]P)) | 400
16 | C=CC[C@@H]1CC(=O)N(C)[C@@H](CC(C)C)C(=O)N[C@@H]([C@@H](C)CC)C(=O)N(C)[C@@H](C)C(=O)N2CC[C@H]2C(=O)N(C)[C@@H](Cc2ccc(C)cc2)C(=O)N(C)CC(=O)N[C@@H](CCc2ccc(C(F)(F)F)c(Cl)c2)C(=O)N2CCC[C@H]2C(=O)NC2(CCCC2)C(=O)N(C)[C@@H]([C@@H](C)CC)C(=O)N1 [Compound 1883] (cyclo([Ac5c][NMeI][X76][NMeL]I[NMeA][Aze][NMePhe(4-Me)][Sar][hPhe(3-Cl-4-CF3)]P)) | 65
17 | CC[C@H](C)[C@@H]1NC(=O)[C@H](CC(C)C)N(C)C(=O)C[C@@H](CC(C)C)NC(=O)[C@H]([C@@H](C)CC)N(C)C(=O)C2(CCCC2)NC(=O)[C@@H]2CCCN2C(=O)[C@H](CCc2cc(F)c(C(F)(F)F)c(F)c2)NC(=O)CN(C)C(=O)[C@H](Cc2ccc(C)cc2)N(C)C(=O)[C@@H]2CCN2C(=O)[C@H](C)N(C)C1=O [Compound 1891] (cyclo([Ac5c][NMeI][d(β3hL)][NMeL]I[NMeA][Aze][NMePhe(4-Me)][Sar][hPhe(3,5-F2-4-CF3)]P)) | 230
18 | CC[C@H](C)[C@@H]1NC(=O)[C@H](CC(C)C)N(C)C(=O)C[C@@H](CC(C)C)NC(=O)[C@H]([C@@H](C)CC)N(C)C(=O)C2(CCCC2)NC(=O)[C@@H]2CCCN2C(=O)[C@H](CCc2ccc(C(F)(F)F)c(Cl)c2)NC(=O)CN(C)C(=O)[C@H](Cc2ccc(C(F)(F)F)cc2)N(C)C(=O)[C@@H]2CCN2C(=O)[C@H](C)N(C)C1=O [Compound 1899] (cyclo([Ac5c][NMeI][d(β3hL)][NMeL]I[NMeA][Aze][NMePhe(4-CF3)][Sar][hPhe(3-Cl-4-CF3)]P)) | 220
